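Exposure lasted 48 hours, with cells grown in 96-well plates and compounds tested at five concentrations. GI50 = concentration required for 50% inhibition of growth. TGI marks complete inhibition of growth.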
Legend:
Test in all cases: inhibition of tumour cell growth, NCI panel, 48 h
[1] = system: RPMI-8226 leukemia
[2] = system: DU-145 prostate
[3] = system: TK-10 renal
[4] = system: NCI/ADR-RES ovarian
[5] = system: HCT-15 colon
[6] = system: PC-3 prostate
[7] = system: OVCAR-8 ovarian
[8] = system: T-47D breast
[9] = system: NCI-H226 lung
[10] = system: MDA-MB-435

SMILES	GI50 [1] [µM]	TGI [1] [µM]	GI50 [2] [µM]	TGI [2] [µM]	GI50 [3] [µM]	TGI [3] [µM]	GI50 [4] [µM]	TGI [4] [µM]	GI50 [5] [µM]	TGI [5] [µM]	GI50 [6] [µM]	TGI [6] [µM]	GI50 [7] [µM]	TGI [7] [µM]	GI50 [8] [µM]	TGI [8] [µM]	GI50 [9] [µM]	TGI [9] [µM]	GI50 [10] [µM]	TGI [10] [µM]
CCCCCCCCCCCCCCCCCC[n+]1ccc2c(C)c3c(c(C)c2c1)c1cc(O)ccc1n3CC	1.58	17.5	1.87	5.64	1.49	4.13	10.8	39	3.34	47.1	1.3	11	1.71	6.53	2.57	27.3	1.88	8.68		
Fc1ccc(C2SCc3nc4ccccc4n32)c(F)c1 (stereo not given)		> 100				> 100				> 100				> 100				> 100		
Cc1c(/C=N/N=C/c2[nH]c(C(=O)OC(C)(C)C)c(C)c2C)[nH]c(C(=O)OC(C)(C)C)c1C		> 100				> 100				> 100				> 100				> 100		
O=C(NC1CCCCC1)NS(=O)(=O)c1ccc2c(c1)CCC2		> 100				> 100				> 100				> 100				> 100		
CCOC(=O)C1=C(C)N(c2ccc(Cl)cc2)[C@]2(C#N)C(O)=C(Cl)C(Cl)=C(O)[C@]12C#N	48.6	> 100	0.339	24.5	65.4	> 100			45.8	> 100			> 100	> 100	16.9	81	> 100	> 100	44.8	> 100
COc1ccc(C=O)c([N+](=O)[O-])c1		> 100				> 100				> 100				> 100				> 100		
Cc1cccc(C)c1NC(=O)/C(=N/NC(N)=S)C(C)C(=O)c1ccc(Cl)cc1 (stereo not given)		> 100				> 100				> 100				> 100				> 100		
O=C1c2c(c3c4ccccc4[nH]c3c3ccc4ccccc4c23)C(=O)N1CCN1CCNCC1	1.81	4.1	1.73	3.25	1.77	3.24			1.49	2.98	1.68	3.67					11.7	33.3	1.67	3.11
COC(=O)C1CC2CC(=NNC(N)=O)CC2C1 (stereo not given)		> 100				> 100				> 100				> 100						
COc1cc2c3c(n(C)c(=O)c2cc1OC)-c1cc2c(cc1/C3=C\CCCCN1C(=O)c3ccccc3C1=O)OCO2	8.5	> 100			1.11	29.1	24.1	> 100	14.8	50.5	10.5	51.6	17.1	> 100			12.8	31.4	> 100	> 100
CC(=O)Nc1ccc(SC#N)c2c(NC(C)=O)cccc12		73.9				> 100				> 100				> 100				> 100		
Cc1ccc2c(C3Cc4ccccc4N3C(=O)/C=C\C(=O)O)c(C)[nH]c2c1 (stereo not given)		79.7				> 100				72.5				> 100				> 100		
O=C(NN1C(=O)CSC12CCCCC2)c1[nH]c2ccc(Br)cc2c1-c1ccccc1	12.7	33.2	19.1	38.8	17	33.2			17.1	39.7	16.5	32.2	16.3	30.1	27.9	> 100	23	55.7	18.8	48.9
COc1ccc(-c2cc(Cc3cccs3)c(=O)[nH]n2)cc1						> 100				> 100				> 100				> 100		
COC(=O)C1(C)CCc2c(OC)ccc(OC)c2C1=O (stereo not given)		> 100				> 100				> 100				> 100				> 100		
CCOC(=O)C1C(=S)NC(=O)C1C#N (stereo not given)		> 100				> 100				> 100				> 100						
COc1cc(N2C(=O)[C@H](O)C2c2ccc(SC)cc2)cc(OC)c1OC (stereo not given in full)	< 0.01	14.6	0.0238	> 100	23.2	> 100	0.0166	> 100	0.0115	> 100	< 0.01	> 100	< 0.01	22.4			< 0.01	> 100		
CCC(=O)C12OC3OC(C)(C)OC3C1OC(C)(C)O2 (stereo not given)						> 100								> 100				> 100		

SMILES	GI50 [1] [µM]	TGI [1] [µM]	GI50 [2] [µM]	TGI [2] [µM]	GI50 [3] [µM]	TGI [3] [µM]	GI50 [4] [µM]	TGI [4] [µM]	GI50 [5] [µM]	TGI [5] [µM]	GI50 [6] [µM]	TGI [6] [µM]	GI50 [7] [µM]	TGI [7] [µM]	GI50 [8] [µM]	TGI [8] [µM]	GI50 [9] [µM]	TGI [9] [µM]	GI50 [10] [µM]	TGI [10] [µM]
CCN(CC)CC1c2ccccc2C(CNc2ccccc2)N1C (stereo not given)		> 100				> 100				> 100				> 100						
Cc1ccc(-c2nnc(-c3nn(-c4ccccc4)c4nc5ccccc5nc34)o2)cc1		> 100				31.2				> 100				25.7				30		
COc1cc2c(c(OC)c1OC)-c1ccc(SC)c(=O)cc1C(NC(=O)c1ccccc1)CC2 (stereo not given)		52.5				64.4						> 31.6		24.6		> 100				< 0.01
N#CC(C#N)=C1NC(=O)CC(=O)N1		> 100				> 100				> 100				> 100				> 100		
COc1cc(C(=O)C/C(CCC(=O)Nc2ccccc2[N+](=O)[O-])=N\NC(N)=O)ccc1O		> 100				> 100				> 100				> 100				> 100		
C#C[C@]1(O)CCCC2=CC(=O)CC[C@@]21C		> 100				> 100				> 100				> 100				> 100		
CC#CCC1CCC(OCC)=CC1=O (stereo not given)		> 100				> 100				> 100				> 100				> 100		
CC/C=C\C/C=C\C/C=C\CCCCCCCC(=O)OCC(O)CO (stereo not given)		> 77.7				> 100				> 88				> 100				> 100		
N#CC(=C1C=CC(=NO)C=C1)c1ccc(Cl)cc1		15.3				75				49.6				60.3						
C1CCC([PH+](C2CCCCC2)C2CCCCC2[PH+](C2CCCCC2)C2CCCCC2)CC1.[Au].[CH-]1CCCCC1CC1CCCC[N-]1 (stereo not given)	0.186	0.944	0.363	2.2	0.516	2.05	2.86	> 100			0.283	1.93	0.264	> 100			0.561	2.7	0.286	1.01
C/C(=C\c1ccc2ccccc2c1)[N+](=O)[O-]	1.57	4.39	1.91	3.54			7.75	23.7	1.56	3.59	1.89	3.89	1.73	3.17			2.41	6.97	1.81	3.6
CO[C@H]1CC(O[C@@H]2/C(C)=C/C[C@@H]3C[C@@H](C[C@]4(C=C[C@H](C)[C@@H](C5CCCCC5)O4)O3)OC(=O)[C@@H]3C=C(C)[C@@H](O)[C@H]4OC/C(=C\C=C\[C@@H]2C)[C@]43O)O[C@@H](C)C1O[C@H]1C[C@H](OC)[C@@H](O)[C@H](C)O1 (stereo not given in full)	1.39	4.38			1.84	3.51					1.08	2.68	2.07	5.29	1.65	3.43	1.45	2.95	1.57	3.13
OCC12C3C4C5C3C1C5C42 (stereo not given)				> 100		> 100		> 100		> 100		> 100		> 100		> 100		> 100		> 100
O=C1c2cccnc2C(=O)c2c1c(C(=O)NCCCN1CCCCC1)c1ccccn21	3.43	> 100	1.2	2.61			2.08	7.37	0.816	2.57	1.49	7.21	0.75	5.58	1.59	4.34			0.403	1.52
COc1ccc(-c2[nH]c3ccccc3c2-c2ccc(OC)cc2)cc1	3.27	69.5	3.58	11.4	12.6	41	3.82	15	3.56	14.1	4.07	25.3	10.3	35.8	3.28	20.6			1.79	4.58
O=C1c2ccccc2-c2cc([N+](=O)[O-])c([N+](=O)[O-])cc21		6.23		3.28		2.81		9.64				2.93		3.57		2.69		12.6		3.27
O=C1CC(c2c[nH]c3ccccc23)C(=O)N1 (stereo not given)		> 100				> 100				> 100				> 100				> 100		

From PubChem BioAssay (NCI)
